Source: US6737383B1, “Herbicidal oxadiazolidines” (priority 1999, dated 2004)

Columns and labels:
morningglory = assay: Test B pre/postemergence morningglory; assay type: in vivo, Ipomoea hederacea
Method in brief: (§1)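 Test chemicals in a non-phytotoxic solvent mixture with surfactant were sprayed preemergence onto planted seeds and postemergence onto plants 2 to 18 cm tall (1- to 4-leaf stage). After twelve to sixteen days in a greenhouse, injury was visually rated against untreated controls from 0 (no effect) to 10 (complete control).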

rape = assay: Test B pre/postemergence rape; assay type: in vivo, Brassica napus
Method in brief: as §1

sugar beet = assay: Test B pre/postemergence sugar beet; assay type: in vivo, Beta vulgaris
Method in brief: as §1

corn = assay: Test B pre/postemergence corn; assay type: in vivo, Zea mays
Method in brief: as §1

duck salad = assay: Test B flood test duck salad; assay type: in vivo, Heteranthera limosa
Method in brief: (§2)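 Read-out is a visual response score from 0 (no effect) to 10 (complete control), assigned by comparison with untreated controls. Treatment was applied at the 2-leaf stage, and plants stayed in the greenhouse for twelve to sixteen days before scoring.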

blackgrass = assay: Test B pre/postemergence blackgrass; assay type: in vivo, Alopecurus myosuroides
Method in brief: as §1

rice = assay: Test B flood test rice; assay type: in vivo, Oryza sativa
Method in brief: as §2

surinam grass = assay: Test B pre/postemergence surinam grass; assay type: in vivo, Brachiaria decumbens
Method in brief: as §1

purple nutsedge = assay: Test B pre/postemergence purple nutsedge; assay type: in vivo, Cyperus rotundus
Method in brief: as §1

giant foxtail = assay: Test B pre/postemergence giant foxtail; assay type: in vivo, Setaria faberii
Method in brief: as §1

cocklebur = assay: Test B pre/postemergence cocklebur; assay type: in vivo, Xanthium strumarium
Method in brief: as §1

crabgrass = assay: Test B pre/postemergence crabgrass; assay type: in vivo, Digitaria sanguinalis
Method in brief: as §1

smallflower flatsedge = assay: Test B flood test smallflower flatsedge; assay type: in vivo, Cyperus difformis
Method in brief: as §2

pigweed = assay: Test B pre/postemergence pigweed; assay type: in vivo, Amaranthus retroflexus
Method in brief: as §1

velvetleaf = assay: Test B pre/postemergence velvetleaf; assay type: in vivo, Abutilon theophrasti
Method in brief: as §1

wheat = assay: Test B pre/postemergence wheat; assay type: in vivo, Triticum aestivum
Method in brief: as §1

[1] = Postemergence, Rate 250 g/ha, scale 0 to 10, 0 no effect, 10 complete control
[2] = Postemergence, Rate 1000 g/ha, scale 0 to 10 (0 no effect, 10 complete control)
[3] = Preemergence, Rate 125 g/ha, scale 0 to 10 (0 no effect, 10 complete control)
[4] = Preemergence, Rate 250 g/ha, scale of 0 to 10 where 0 is no effect and 10 is complete control
[5] = Preemergence, Rate 500 g/ha, scale 0 (no effect) to 10 (complete control)
[6] = Rate 125 g/ha, Postemergence, scale 0 to 10, 0 no effect, 10 complete control
[7] = Rate 1000 g/ha, Preemergence, scale 0 to 10 (0 no effect, 10 complete control)
[8] = Rate 500 g/ha, Postemergence, 0 to 10 scale (0 no effect, 10 complete control)
[9] = Rate 125 g/ha, Postemergence section (flood test species), scale 0 to 10, 0 no effect, 10 complete control
[10] = Rate 500 g/ha, Postemergence section of Table B, 0 to 10 scale (0 no effect, 10 complete control)
[11] = flood test, listed under Postemergence, Rate 250 g/ha, scale 0 to 10, 0 no effect, 10 complete control

COc1ccc(-n2c(=O)on(C(=O)N(c3ccc(F)cc3)C(C)C)c2=O)cc1 [Compound 5]
Morningglory plant response rating (morningglory; [1]): 3 | Morningglory plant response rating (morningglory; [2]): 9 | Plant response rating, Morningglory (morningglory; [3]): 0 | Plant response rating, Morningglory (morningglory; [4]): 0 | Morningglory plant response rating (morningglory; [5]): 0 | Morningglory plant response rating (morningglory; [6]): 2 | Plant response rating, Morningglory (morningglory; [7]): 0 | Rape plant response rating (rape; [1]): 5 | Rape plant response rating (rape; [2]): 5 | Plant response rating, Rape (rape; [3]): 0 | Plant response rating, Rape (rape; [4]): 0 | Rape plant response rating (rape; [5]): 0 | Rape plant response rating (rape; [6]): 5 | Rape plant response rating (rape; [8]): 4 | Plant response rating, Rape (rape; [7]): 0 | Sugarbeets plant response rating (sugar beet; [1]): 4 | Sugarbeets plant response rating (sugar beet; [2]): 7 | Plant response rating, Sugarbeets (sugar beet; [3]): 0 | Plant response rating, Sugarbeets (sugar beet; [4]): 0 | Sugarbeets plant response rating (sugar beet; [5]): 0 | Sugarbeets plant response rating (sugar beet; [6]): 3 | Plant response rating, Sugarbeets (sugar beet; [7]): 0 | Corn plant response rating (corn; [1]): 0 | Corn plant response rating (corn; [2]): 0 | Plant response rating, Corn (corn; [3]): 0 | Plant response rating, Corn (corn; [4]): 0 | Corn plant response rating (corn; [5]): 0 | Corn plant response rating (corn; [6]): 0 | Corn plant response rating (corn; [8]): 0 | Plant response rating, Corn (corn; [7]): 0 | Ducksalad plant response rating (duck salad; [2]): 0 | Ducksalad plant response rating (duck salad; [9]): 0 | Ducksalad plant response rating (duck salad; [10]): 0 | Ducksalad plant response rating (duck salad; [11]): 0 | Blackgrass plant response rating (blackgrass; [1]): 5 | Blackgrass plant response rating (blackgrass; [2]): 8 | Plant response rating, Blackgrass (blackgrass; [3]): 3 | Plant response rating, Blackgrass (blackgrass; [4]): 3 | Blackgrass plant response rating (blackgrass; [5]): 5 | Blackgrass plant response rating (blackgrass; [6]): 4 | Blackgrass plant response rating (blackgrass; [8]): 4 | Plant response rating, Blackgrass (blackgrass; [7]): 8 | Rice plant response rating (rice; [2]): 0 | Rice plant response rating (rice; [9]): 0 | Rice plant response rating (rice; [10]): 0 | Rice plant response rating (rice; [11]): 0 | B. signalgrass plant response rating (surinam grass; [1]): 0 | B. signalgrass plant response rating (surinam grass; [2]): 4 | Plant response rating, B. signalgrass (surinam grass; [3]): 3 | Plant response rating, B. signalgrass (surinam grass; [4]): 3 | B. signalgrass plant response rating (surinam grass; [5]): 3 | B. signalgrass plant response rating (surinam grass; [6]): 0 | B. signalgrass plant response rating (surinam grass; [8]): 0 | Plant response rating, B. signalgrass (surinam grass; [7]): 8 | Nutsedge plant response rating (purple nutsedge; [1]): 0 | Nutsedge plant response rating (purple nutsedge; [2]): 0 | Plant response rating, Nutsedge (purple nutsedge; [3]): 0 | Plant response rating, Nutsedge (purple nutsedge; [4]): 0 | Nutsedge plant response rating (purple nutsedge; [5]): 0 | Nutsedge plant response rating (purple nutsedge; [6]): 0 | Nutsedge plant response rating (purple nutsedge; [8]): 0 | Plant response rating, Nutsedge (purple nutsedge; [7]): 0 | Giant foxtail plant response rating (giant foxtail; [1]): 7 | Giant foxtail plant response rating (giant foxtail; [2]): 7 | Plant response rating, Giant foxtail (giant foxtail; [3]): 7 | Plant response rating, Giant foxtail (giant foxtail; [4]): 8 | Giant foxtail plant response rating (giant foxtail; [5]): 9 | Giant foxtail plant response rating (giant foxtail; [6]): 1 | Giant foxtail plant response rating (giant foxtail; [8]): 4 | Plant response rating, Giant foxtail (giant foxtail; [7]): 10 | Cocklebur plant response rating (cocklebur; [1]): 5 | Cocklebur plant response rating (cocklebur; [2]): 8 | Plant response rating, Cocklebur (cocklebur; [3]): 0 | Plant response rating, Cocklebur (cocklebur; [4]): 0 | Cocklebur plant response rating (cocklebur; [5]): 0 | Cocklebur plant response rating (cocklebur; [6]): 5 | Cocklebur plant response rating (cocklebur; [8]): 5 | Plant response rating, Cocklebur (cocklebur; [7]): 0 | Crabgrass plant response rating (crabgrass; [1]): 6 | Crabgrass plant response rating (crabgrass; [2]): 6 | Plant response rating, Crabgrass (crabgrass; [3]): 3 | Plant response rating, Crabgrass (crabgrass; [4]): 3 | Crabgrass plant response rating (crabgrass; [5]): 6 | Crabgrass plant response rating (crabgrass; [6]): 3 | Crabgrass plant response rating (crabgrass; [8]): 6 | Plant response rating, Crabgrass (crabgrass; [7]): 7 | S. Flatsedge plant response rating (smallflower flatsedge; [2]): 2 | S. Flatsedge plant response rating (smallflower flatsedge; [9]): 0 | S. Flatsedge plant response rating (smallflower flatsedge; [11]): 0 | Redroot pigweed plant response rating (pigweed; [1]): 7 | Redroot pigweed plant response rating (pigweed; [2]): 8 | Plant response rating, Redroot pigweed (pigweed; [3]): 6 | Plant response rating, Redroot pigweed (pigweed; [4]): 7 | Redroot pigweed plant response rating (pigweed; [5]): 7 | Redroot pigweed plant response rating (pigweed; [6]): 7 | Redroot pigweed plant response rating (pigweed; [8]): 7 | Plant response rating, Redroot pigweed (pigweed; [7]): 10 | Velvetleaf plant response rating (velvetleaf; [1]): 5 | Velvetleaf plant response rating (velvetleaf; [2]): 7 | Plant response rating, Velvetleaf (velvetleaf; [3]): 0 | Plant response rating, Velvetleaf (velvetleaf; [4]): 0 | Velvetleaf plant response rating (velvetleaf; [5]): 0 | Velvetleaf plant response rating (velvetleaf; [6]): 4 | Plant response rating, Velvetleaf (velvetleaf; [7]): 0 | Wheat plant response rating (wheat; [1]): 1 | Wheat plant response rating (wheat; [2]): 2 | Plant response rating, Wheat (wheat; [3]): 0 | Plant response rating, Wheat (wheat; [4]): 0 | Wheat plant response rating (wheat; [5]): 0 | Wheat plant response rating (wheat; [6]): 0 | Plant response rating, Wheat (wheat; [7]): 0
